Assay results reported in patent US12240846B2 (Enliven Inc., priority 2020, dated 2025).

What was measured:
HL60 cells = assay: HL60 cell proliferation assay (CellTiter-Glo); format: cell-based; settings: Homo sapiens, HL-60, HL60 cell viability, 72 hours, read-out: Cell Line (IC50, nM) HL60
K562 cells = assay: K562 cell proliferation assay (CellTiter-Glo); format: cell-based; settings: Homo sapiens, K562 cell viability, 72 hours, read-out: Cell Line (IC50, nM) K562
ABL1 = target: T1, ABL1 (Homo sapiens, UniProt P00519); assay: Luminescence-based ABL kinase assay (300 μM ATP), ADP-Glo; format: biochemical
T1 construct: purchased Carna Biosciences
Text: Compounds were serially diluted in DMSO. […] Luminescence signal positively correlates with kinase activity.

ABL1 (T315I) = ABL1 (T315I) (Homo sapiens, UniProt P00519, T315I); assay: as above; format: biochemical
Method: Kinase activity of ABL1 was measured using the ADP-Glo system (Promega), which measures formation of ADP using a luminescence-based method. Compounds were serially diluted in DMSO. 20 nL of compound or DMSO only (high control, HC) were added to a 384-well plate (OptiPlate-384. PerkinElmer) using an Echo550 liquid handler (Labcyte). 15 μL of kinase solution (10 mM MgCl2, 0.01% Brij-35, 2 mM DTT, 0.05% BSA, 1 mM EGTA, 50 mM HEPES pH 7.5, and 3.325 nM ABL1 [Carna Biosciences]) were added to each well of the 384-well plate containing the compounds. No enzyme control wells were included (low control, LC). The plate was incubated at room temperature for 30 minutes. 5 μL of a second solution containing 10 mM MgCl2, 0.01% Brij-35, 2 mM DTT, 0.05% BSA, 1 mM EGTA, 50 mM HEPES pH 7.5, 6 μM Peptide 2 (Perkin Elmer, Cat No 760346), and 1.2 mM ATP were added to each well to start the kinase reaction. The plate was incubated for 90 minutes at room temperature. 20 μL of ADP-Glo reagent (Promega) were then added to each well and the plate was incubated for 40 minutes at room temperature. 40 μL of kinase detection reagent (Promega) was added to each well and the plate was incubated for an additional 45 minutes at room temperature. During this step, ADP was converted to ATP, a substrate for luciferase, to produce luminescence signal. Luminescence was measured on an Envision plate reader (Perkin Elmer). Luminescence signal positively correlates with kinase activity. The percent kinase activity was calculated as follows: percent kinase activity=100×(Lumsample−LumLC)/(LumHC−LumLC). As noted above, DMSO only and no enzyme wells were used as high and low controls, respectively. IC50 values were calculated using the XLFit software.

pCRKL in K562 cells = assay: pCRKL ELISA assay in K562 cells; format: cell-based; settings: Homo sapiens, 1.5 h, 90 minutes incubation, read-out: pCRKL ELISA, Cell Line IC50 (nM) K562
Method: (§1) K562 or Ba/F3 ABL T315I cells (2.0*10^5 cells/100 μl/well) were seeded in 96 well (Corning, cat #3799). Compounds were dissolved in DMSO, serially diluted in DMSO and then were added, mixed, and incubated for 90 minutes at 37° C., 5% CO2. Following the 90-minute incubation, plates were centrifuged for 5 min at 3000 RPM and supernatant was removed from each well. Cells were washed 3 times with 150 μl PBS prior to addition of 100 μl cell RIPA lysis buffer (Boston BioProducts, cat #BP-115D) supplied with 1× complete ULTRA cocktail inhibitor (Roche, 05892791001) and 1× PhosSTOP Phosphatase Inhibitor Cocktail Tablets (Roche, 04906837001). Cells were incubated with lysis buffer for 1 hour at 4° C. prior to storage at −80C.
(§2) A capture antibody able to detect phosphorylated and non-phosphorylated CRKL (R&D Systems, cat #AF5127) was added to Meso Scale Discovery (MSD) standard bind plates (MSD, cat #L15XA-3) at 5 ug/mL and incubated at 4° C. overnight. The next day, plates were washed with PBS+ 0.05% Tween20 (PBST) and 150 μl of 5% BSA blocking solution was added for 1 hour at room temperature with shaking. Plates were washed with PBST. Lysates were thawed and 30 μl of lysate was added to the MSD plates and incubated for 2 hours at room temperature with shaking. MSD plates were washed with PBST and 30 μl of a detection antibody that binds phosphorylated pCRKL (R&D Systems, cat #MAB6910) was added at 1 ug/mL to each well. Plates were incubated for 1 hour at room temperature with shaking. Plates were washed with PBST prior to addition of 30 μl of a sulfo tagged goat anti mouse detection antibody (MSD cat #R32AC-1). Plates were incubated for 1 hour at room temperature with shaking. Plates were washed with PBST prior to addition of 150 ul of 1×MSD read buffer T (MSD, cat #R92TC-2). Electrochemiluminescence (ECLU) was read on an MSD plate reader (Meso Scale Discovery). The remaining activity by calculated as follows: % Relative activity=100× (ELCUsample−ECLULC)/(ECLUHC−ECLULC). The low and high controls (LC/HC) are generated from lysate from wells without cells or with cells treated with 0.1% DMSO, respectively. IC50 values were calculated using XLFit software using a nonlinear regression model with a sigmoidal dose response and are shown in Table 4 and Table 5 below.

[1] = tested on: pCRKL in Ba/F3 ABL1 (T315I) cells; assay: pCRKL ELISA assay in Ba/F3 ABL1 (T315I) cells; format: cell-based; settings: Mus musculus, BaF3, 1.5 h, 90 minutes incubation, read-out: pCRKL ELISA, Cell Line IC50 (nM) Ba/F3 ABL1 (T315I)
Method: as §1, §2

Compound | IC50 (HL60 cells) | IC50 (K562 cells) | IC50 (ABL1) | IC50 (ABL1 (T315I)) | IC50 (pCRKL in K562 cells) | IC50 [1]
COc1ccnc(OC)c1-c1cc2cc(NC(=O)[C@H]3C[C@@H]3CN3CCN(C)CC3)ncc2n1C (single isomer, unassigned) [Compound 120] | > 10000 nM | 47.6 nM | 27.1 nM | 39.8 nM | 108 nM | –
COc1ncc(F)c(OC)c1-c1cc2cc(NC(=O)[C@H]3C[C@@H]3CN3CCN(C)CC3)ncc2n1C (single isomer, unassigned) [Compound 128] | > 10000 nM | 28.6 nM | 13.4 nM | 12.9 nM | 61.8 nM | 171 nM
COc1ccnc(OC)c1-c1cc2cc(NC(=O)[C@H]3C[C@@H]3CN3CCNCC3)ncc2n1C (single isomer, unassigned) [Compound 138] | – | – | 12.8 nM | 24.4 nM | 254 nM | –
COc1ccc(F)cc1-c1cc2cc(NC(=O)[C@@H]3C[C@@H]3F)ncc2n1C [Compound 26, (1S,2S)-2-fluoro-N-[2-(5-fluoro-2-methoxyphenyl)-1-methylpyrrolo[2,3-c]pyridin-5-yl]cyclopropane-1-carboxamide] | 2930 nM | 174 nM | 30.3 nM | 8.99 nM | 303 nM | –
COc1cccc(F)c1-c1cc2cc(NC(=O)[C@@H]3C[C@@H]3F)ncc2n1C [Compound 27, (1S,2S)-2-fluoro-N-[2-(2-fluoro-6-methoxyphenyl)-1-methylpyrrolo[2,3-c]pyridin-5-yl]cyclopropane-1-carboxamide] | 761 nM | 112 nM | 40.7 nM | 1.85 nM | 553 nM | –
Cn1c(-c2cccc3c2CCN3)cc2cc(NC(=O)[C@@H]3C[C@@H]3F)ncc21 [Compound 31, (1S,2S)-N-[2-(2,3-dihydro-1H-indol-4-yl)-1-methylpyrrolo[2,3-c]pyridin-5-yl]-2-fluorocyclopropane-1-carboxamide] | 514 nM | 143 nM | 10.7 nM | 9.48 nM | 83.2 nM | –
[2H]C([2H])([2H])Oc1ncccc1-c1cc2cc(NC(=O)[C@@H]3C[C@@H]3F)ncc2n1C [Compound 32, (1S,2S)-2-fluoro-N-(2-(2-(methoxy-d3)pyridin-3-yl)-1-methyl-1H-pyrrolo[2,3-c]pyridin-5-yl)cyclopropane-1-carboxamide] | 5120 nM | 182 nM | 28.6 nM | 83.1 nM | 189 nM | –
COc1ncccc1-c1cc2cc(NC(=O)[C@@H]3C[C@@H]3F)ncc2n1C [Compound 35, (1S,2S)-2-fluoro-N-[2-(2-methoxypyridin-3-yl)-1-methylpyrrolo[2,3-c]pyridin-5-yl]cyclopropane-1-carboxamide] | 4150 nM | 123 nM | 39.7 nM | 79.6 nM | 241 nM | 329 nM
COc1ncc(F)c(OC)c1-c1cc2cc(NC(=O)[C@@H]3C[C@@H]3F)ncc2n1C [Compound 38, (1S,2S)-2-fluoro-N-[2-(5-fluoro-2,4-dimethoxypyridin-3-yl)-1-methylpyrrolo[2,3-c]pyridin-5-yl]cyclopropane-1-carboxamide] | 1350 nM | 27.5 nM | 11.3 nM | 23.9 nM | 73.2 nM | 248 nM
COc1ncnc(OC)c1-c1cc2cc(NC(=O)[C@@H]3C[C@@H]3F)ncc2n1C [Compound 39, (1S,2S)-N-[2-(4,6-dimethoxypyrimidin-5-yl)-1-methylpyrrolo[2,3-c]pyridin-5-yl]-2-fluorocyclopropane-1-carboxamide] | 3780 nM | 33.6 nM | 36 nM | 71.8 nM | 96.4 nM | 263 nM
COc1ccccc1-c1c(C)c2cnc(NC(=O)[C@@H]3C[C@@H]3F)cc2n1C [Compound 52, (1S,2S)-2-fluoro-N-(2-(2-methoxyphenyl)-1,3-dimethyl-1H-pyrrolo[3,2-c]pyridin-6-yl)cyclopropane-1-carboxamide] | 1200 nM | 109 nM | 51.3 nM | 4.23 nM | 416 nM | –
COc1ccccc1-c1c(C)c2cnc(NC(=O)[C@H]3C[C@H]3F)cc2n1C [Compound 53, (1R,2R)-2-fluoro-N-[2-(2-methoxyphenyl)-1,3-dimethylpyrrolo[3,2-c]pyridin-6-yl]cyclopropane-1-carboxamide] | > 10000 nM | 90.9 nM | 82.4 nM | 8.3 nM | 574 nM | –
COc1cccc(F)c1-c1c(C)c2cnc(NC(=O)[C@@H]3C[C@@H]3F)cc2n1C [Compound 54, (1S,2S)-2-fluoro-N-(2-(2-fluoro-6-methoxyphenyl)-1,3-dimethyl-1H-pyrrolo[3,2-c]pyridin-6-yl)cyclopropane-1-carboxamide] | 957 nM | 51.1 nM | 51.9 nM | 6.51 nM | 151 nM | –
COc1nc(C)nc(OC)c1-c1cc2cc(NC(=O)[C@@H]3C[C@@H]3F)ncc2n1C [Compound 72, (1S,2S)-N-[2-(4,6-dimethoxy-2-methylpyrimidin-5-yl)-1-methylpyrrolo[2,3-c]pyridin-5-yl]-2-fluorocyclopropane-1-carboxamide] | 3130 nM | 38.7 nM | 37.1 nM | 54.7 nM | 137 nM | 1140 nM
COc1ccnc(OC)c1-c1cc2cc(NC(=O)[C@@H]3C[C@@H]3F)ncc2n1C [Compound 75, (1S,2S)-N-[2-(2,4-dimethoxypyridin-3-yl)-1-methylpyrrolo[2,3-c]pyridin-5-yl]-2-fluorocyclopropane-1-carboxamide] | 682 nM | 11.6 nM | 8.65 nM | 13.6 nM | 45.3 nM | 93.2 nM
COc1ccccc1-c1cc2cc(NC(=O)NCCN3CCN(C)CC3)ncc2n1C [Compound 79, 3-[2-(2-methoxyphenyl)-1-methylpyrrolo[2,3-c]pyridin-5-yl]-1-[2-(4-methylpiperazin-1-yl)ethyl]urea] | > 10000 nM | 329 nM | 79.2 nM | 77 nM | 594 nM | –
COc1nccc(OC2CC2)c1-c1cc2cc(NC(=O)[C@@H]3C[C@@H]3F)ncc2n1C [Compound 90, (1S,2S)-N-[2-(4-cyclopropoxy-2-methoxypyridin-3-yl)-1-methylpyrrolo[2,3-c]pyridin-5-yl]-2-fluorocyclopropane-1-carboxamide] | 548 nM | 6.01 nM | 2.26 nM | 22.2 nM | 29.8 nM | –
[2H]C([2H])([2H])Oc1ncnc(OC([2H])([2H])[2H])c1-c1cc2cc(NC(=O)[C@@H]3C[C@@H]3F)ncc2n1C [Compound 95, (1S,2S)-N-(2-(4,6-bis(methoxy-d3)pyrimidin-5-yl)-1-methyl-1H-pyrrolo[2,3-c]pyridin-5-yl)-2-fluorocyclopropane-1-carboxamide] | 3550 nM | 47.8 nM | 12.7 nM | 43.5 nM | 66.3 nM | –
CCc1ccnc(OC)c1-c1cc2cc(NC(=O)[C@@H]3C[C@@H]3F)ncc2n1C [Compound 142, (1S,2S)-N-[2-(4-ethyl-2-methoxypyridin-3-yl)-1-methylpyrrolo[2,3-c]pyridin-5-yl]-2-fluorocyclopropane-1-carboxamide] | 1690 nM | 59.3 nM | 18.6 nM | 17.5 nM | – | –
CCOc1ncc(F)cc1-c1cc2cc(NC(=O)[C@@H]3C[C@@H]3F)ncc2n1C [Compound 143, (1S,2S)-N-[2-(2-ethoxy-5-fluoropyridin-3-yl)-1-methylpyrrolo[2,3-c]pyridin-5-yl]-2-fluorocyclopropane-1-carboxamide] | 9800 nM | 289 nM | 74.9 nM | 299 nM | – | –
